In patent US10131652B2, “Pyrimidinyloxy benzene derivatives as herbicides” (E. I. DU PONT DE NEMOURS AND COMPANY, priority 2014, dated 2018):

Columns and labels:
Format in all cases: in vivo
[1] = tested on: barnyardgrass (Echinochloa crus-galli); assay: Test B pre-/postemergence plant response
Summary of the method: (§1)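 Greenhouse pots, loam/sand soil; compound formulated with surfactant in non-phytotoxic solvent. Preemergence soil spray and postemergence spray at 1–2 leaf stage run simultaneously. Visual injury, 0–100, about 10 days post-treatment.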

[2] = tested on: corn (Zea mays); assay: Test B pre-/postemergence plant response
Summary of the method: as §1

[3] = tested on: giant foxtail (Setaria faberii); assay: Test B pre-/postemergence plant response
Summary of the method: as §1

[4] = tested on: pigweed (Amaranthus retroflexus); assay: Test B pre-/postemergence plant response
Summary of the method: as §1

[5] = tested on: wheat (Triticum aestivum); assay: Test B pre-/postemergence plant response
Summary of the method: as §1

[6] = tested on: Italian ryegrass (Lolium multiflorum); assay: Test D pre-/postemergence plant response; conditions: Postemergence
Source text: (§2) Seeds of plant species selected from blackgrass (Alopecurus myosuroides), Italian ryegrass (Lolium multiflorum), winter wheat (Triticum aestivum), galium (catchweed bedstraw, Galium aparine), corn (Zea mays), large (Lg) crabgrass (Digitaria sanguinalis), giant foxtail (Setaria faberii), johnsongrass (Sorghum halepense), lambsquarters (Chenopodium album), morningglory (Ipomoea coccinea), yellow nutsedge (Cyperus esculentus), pigweed (Amaranthus retroflexus), ragweed (common ragweed, Ambrosia elatior), soybean (Glycine max), bamyardgrass (Echinochloa crus-galli), oilseed rape (Brassica napus), waterhemp (common waterhemp, Amaranthus rudis), and velvetleaf (Abutilon theophrasti) were planted into a blend of loam soil and sand and treated preemergence with test chemicals formulated in a non-phytotoxic solvent mixture which included a surfactant. At the same time, plants selected from these crop and weed species and also kochia (Kochia scoparia), wild oat (Avena fatua), and chickweed (common chickweed, Stellaria media) were planted in pots containing Redi-Earth® planting medium (Scotts Company, 14111 Scottslawn Road, Marysville, Ohio 43041) comprising spaghnum peat moss, vermiculite, wetting agent and starter nutrients and treated with postemergence applications of test chemicals formulated in the same manner. Plants ranged in height from 2 to 18 cm (1- to 4-leaf stage) for postemergence treatments. Treated plants and controls were maintained in a greenhouse for 13 to 15 days, after which time all species were compared to controls and visually evaluated. Plant response ratings, summarized in Table D, are based on a scale of 0 to 100 where 0 is no effect and 100 is complete control. A dash (-) response means no test result.

[7] = tested on: barnyardgrass (Echinochloa crus-galli); assay: Test D pre-/postemergence plant response; conditions: Postemergence; for Barnyardgrass plant response rating: scale 0 to 100 (0 no effect, 100 complete control); for Plant response rating, Barnyardgrass: scale 0 to 100, 0 no effect, 100 complete control
Source text: as §2

[8] = tested on: blackgrass (Alopecurus myosuroides); assay: Test D pre-/postemergence plant response; conditions: Postemergence; for Blackgrass plant response rating: scale 0 to 100 (0 no effect, 100 complete control); for Plant response rating, Blackgrass: scale 0 to 100, 0 no effect, 100 complete control
Source text: as §2

[9] = tested on: corn (Zea mays); assay: Test D pre-/postemergence plant response; conditions: Postemergence; for Corn plant response rating: scale 0 to 100 (0 no effect, 100 complete control); for Plant response rating, Corn: scale 0 to 100, 0 no effect, 100 complete control
Source text: as §2

[10] = tested on: galium (catchweed bedstraw, Galium aparine); assay: Test D pre-/postemergence plant response; conditions: Postemergence; for Galium plant response rating: 31 g ai/ha, scale 0 to 100 (0 no effect, 100 complete control); for Plant response rating, Galium: scale 0 to 100, 0 no effect, 100 complete control
Source text: as §2

[11] = tested on: giant foxtail (Setaria faberii); assay: Test D pre-/postemergence plant response; conditions: Postemergence; for Foxtail, Giant plant response rating: scale 0 to 100 (0 no effect, 100 complete control); for Plant response rating, Foxtail, Giant: scale 0 to 100, 0 no effect, 100 complete control
Source text: as §2

[12] = tested on: lambsquarters (Chenopodium album); assay: Test D pre-/postemergence plant response; conditions: Postemergence
Source text: as §2

[13] = tested on: morningglory (Ipomoea coccinea); assay: Test D pre-/postemergence plant response; conditions: Postemergence
Source text: as §2

[14] = tested on: pigweed (Amaranthus retroflexus); assay: Test D pre-/postemergence plant response; conditions: Postemergence
Source text: as §2

[15] = tested on: ragweed (common ragweed, Ambrosia elatior); assay: Test D pre-/postemergence plant response; conditions: Postemergence
Source text: as §2

[16] = tested on: waterhemp (common waterhemp, Amaranthus rudis); assay: Test D pre-/postemergence plant response; conditions: Postemergence
Source text: as §2

[17] = 31 g ai/ha, Preemergence, 0 to 100 scale where 0 is no effect and 100 is complete control
[18] = 125 g ai/ha, postemergence, 0 to 100 scale, 0 no effect, 100 complete control
[19] = Postemergence, 31 g ai/ha, 0 to 100 scale (0 no effect, 100 complete control)
[20] = Preemergence, 125 g ai/ha, 0 to 100 scale (0 no effect, 100 complete control)
[21] = 31 g ai/ha, scale 0 to 100 (0 no effect, 100 complete control)
[22] = 62 g ai/ha, scale 0 to 100, 0 no effect, 100 complete control
[23] = 125 g ai/ha, scale 0 to 100, 0 no effect, 100 complete control
[24] = Postemergence, 500 g ai/ha, 0 to 100 scale (0 no effect, 100 complete control)
[25] = Preemergence, 500 g ai/ha, 0 to 100 scale where 0 is no effect and 100 is complete control

Fc1cccc(Oc2ncc(Cl)cn2)c1-c1cc(C(F)(F)F)no1 [Compound 228]
Plant response rating, Barnyardgrass [1, 17]: 50 | Plant response rating, Barnyardgrass [1, 18]: 70 | Plant response rating, Barnyardgrass [1, 19]: 30 | Barnyardgrass plant response rating [1, 20]: 100 | Plant response rating, Corn [2, 18]: 30 | Plant response rating, Corn [2, 19]: 20 | Plant response rating, Foxtail, Giant [3, 17]: 90 | Plant response rating, Foxtail, Giant [3, 18]: 90 | Plant response rating, Foxtail, Giant [3, 19]: 40 | Foxtail, Giant plant response rating [3, 20]: 100 | Plant response rating, Pigweed [4, 17]: 100 | Plant response rating, Pigweed [4, 18]: 100 | Plant response rating, Pigweed [4, 19]: 100 | Pigweed plant response rating [4, 20]: 100 | Plant response rating, Wheat [5, 18]: 50 | Plant response rating, Wheat [5, 19]: 0 | Plant response rating (scale 0 to 100), Ryegrass, Italian ([6]; 16 g ai/ha): 0 | Ryegrass, Italian plant response rating [6, 21]: 5 | Ryegrass, Italian plant response rating [6, 22]: 15 | Plant response rating, Ryegrass, Italian [6, 23]: 25 | Plant response rating (scale 0 to 100), Barnyardgrass ([7]; 16 g ai/ha): 15 | Barnyardgrass plant response rating ([7]; 31 g ai/ha): 20 | Plant response rating, Barnyardgrass ([7]; 62 g ai/ha): 20 | Plant response rating, Barnyardgrass ([7]; 125 g ai/ha): 35 | Plant response rating (scale 0 to 100), Blackgrass ([8]; 16 g ai/ha): 15 | Blackgrass plant response rating ([8]; 31 g ai/ha): 15 | Plant response rating, Blackgrass ([8]; 62 g ai/ha): 25 | Plant response rating, Blackgrass ([8]; 125 g ai/ha): 35 | Plant response rating (scale 0 to 100), Corn ([9]; 16 g ai/ha): 5 | Corn plant response rating ([9]; 31 g ai/ha): 10 | Plant response rating, Corn ([9]; 62 g ai/ha): 10 | Plant response rating, Corn ([9]; 125 g ai/ha): 10 | Plant response rating (scale 0 to 100), Galium ([10]; 16 g ai/ha): 85 | Galium plant response rating [10]: 98 | Plant response rating, Galium ([10]; 62 g ai/ha): 98 | Plant response rating, Galium ([10]; 125 g ai/ha): 100 | Plant response rating (scale 0 to 100), Foxtail, Giant ([11]; 16 g ai/ha): 10 | Foxtail, Giant plant response rating ([11]; 31 g ai/ha): 10 | Plant response rating, Foxtail, Giant ([11]; 62 g ai/ha): 20 | Plant response rating, Foxtail, Giant ([11]; 125 g ai/ha): 40 | Plant response rating (scale 0 to 100), Lambsquarters ([12]; 16 g ai/ha): 85 | Lambsquarters plant response rating [12, 21]: 85 | Lambsquarters plant response rating [12, 22]: 90 | Plant response rating, Lambsquarters [12, 23]: 95 | Plant response rating (scale 0 to 100), Morningglory ([13]; 16 g ai/ha): 65 | Morningglory plant response rating [13, 21]: 65 | Morningglory plant response rating [13, 22]: 80 | Plant response rating, Morningglory [13, 23]: 75 | Plant response rating (scale 0 to 100), Pigweed ([14]; 16 g ai/ha): 85 | Pigweed plant response rating [14, 21]: 95 | Pigweed plant response rating [14, 22]: 95 | Plant response rating, Pigweed [14, 23]: 98 | Plant response rating (scale 0 to 100), Ragweed ([15]; 16 g ai/ha): 20 | Ragweed plant response rating [15, 21]: 35 | Ragweed plant response rating [15, 22]: 60 | Plant response rating, Ragweed [15, 23]: 60 | Plant response rating (scale 0 to 100), Waterhemp ([16]; 16 g ai/ha): 90 | Waterhemp plant response rating [16, 21]: 95 | Waterhemp plant response rating [16, 22]: 95 | Plant response rating, Waterhemp [16, 23]: 100

Cc1cc(-c2ccccc2Oc2ncc(Cl)cn2)no1 [Compound 153]
Plant response rating, Barnyardgrass [1, 18]: 0 | Plant response rating, Barnyardgrass [1, 24]: 70 | Barnyardgrass plant response rating [1, 20]: 0 | Plant response rating, Barnyardgrass [1, 25]: 100 | Plant response rating, Corn [2, 18]: 30 | Plant response rating, Corn [2, 24]: 40 | Plant response rating, Foxtail, Giant [3, 18]: 20 | Plant response rating, Foxtail, Giant [3, 24]: 90 | Foxtail, Giant plant response rating [3, 20]: 30 | Plant response rating, Foxtail, Giant [3, 25]: 100 | Plant response rating, Pigweed [4, 18]: 100 | Plant response rating, Pigweed [4, 24]: 100 | Pigweed plant response rating [4, 20]: 100 | Plant response rating, Pigweed [4, 25]: 100 | Plant response rating, Wheat [5, 18]: 30 | Plant response rating, Wheat [5, 24]: 50 | Ryegrass, Italian plant response rating [6, 21]: 0 | Plant response rating, Ryegrass, Italian [6, 22]: 0 | Plant response rating, Ryegrass, Italian [6, 23]: 0 | Barnyardgrass plant response rating ([7]; 16 g ai/ha): 5 | Barnyardgrass plant response rating ([7]; 31 g ai/ha): 5 | Plant response rating, Barnyardgrass ([7]; 62 g ai/ha): 5 | Plant response rating, Barnyardgrass ([7]; 125 g ai/ha): 5 | Blackgrass plant response rating ([8]; 16 g ai/ha): 0 | Blackgrass plant response rating ([8]; 31 g ai/ha): 0 | Plant response rating, Blackgrass ([8]; 62 g ai/ha): 0 | Plant response rating, Blackgrass ([8]; 125 g ai/ha): 0 | Corn plant response rating ([9]; 16 g ai/ha): 0 | Corn plant response rating ([9]; 31 g ai/ha): 0 | Plant response rating, Corn ([9]; 62 g ai/ha): 5 | Plant response rating, Corn ([9]; 125 g ai/ha): 5 | Galium plant response rating [10]: 70 | Plant response rating, Galium ([10]; 62 g ai/ha): 70 | Plant response rating, Galium ([10]; 125 g ai/ha): 80 | Foxtail, Giant plant response rating ([11]; 16 g ai/ha): 0 | Foxtail, Giant plant response rating ([11]; 31 g ai/ha): 0 | Plant response rating, Foxtail, Giant ([11]; 62 g ai/ha): 5 | Plant response rating, Foxtail, Giant ([11]; 125 g ai/ha): 5 | Lambsquarters plant response rating [12, 21]: 35 | Plant response rating, Lambsquarters [12, 22]: 30 | Plant response rating, Lambsquarters [12, 23]: 50 | Morningglory plant response rating [13, 21]: 5 | Plant response rating, Morningglory [13, 22]: 15 | Plant response rating, Morningglory [13, 23]: 25 | Pigweed plant response rating [14, 21]: 20 | Plant response rating, Pigweed [14, 22]: 40 | Plant response rating, Pigweed [14, 23]: 70 | Ragweed plant response rating [15, 21]: 10 | Plant response rating, Ragweed [15, 22]: 25 | Plant response rating, Ragweed [15, 23]: 55 | Waterhemp plant response rating [16, 21]: 10 | Plant response rating, Waterhemp [16, 22]: 35 | Plant response rating, Waterhemp [16, 23]: 65
